Measured values taken from US5403824A, “Methods for the treatment of osteoporosis” (The Procter & Gamble Company, priority 1993, dated 1995).

System: Rat osteoblast-like cells (ROS 17/2.8)
Test: [3H]-thymidine incorporation, proliferation of osteoblast-like cells
Assay type: cell-based
Conditions: ROS 17/2.8, 18 hrs incubation, 2 hrs pulse
Source text: Stimulation of osteoblast-like cell proliferation can be measured according to several art-recognized in vitro models. One such model is described in European Patent Publication No. 384,731, by Rodan et al, published Aug. 29, 1990, which is incorporated herein by reference. (Applicants have modified this method by reducing regent volumes to one-quarter those described and by utilizing Dulbecco's Modified eagle's Medium (DMEM).) In this model, proliferation (division) of, for example, rat osteoblast-like cells (rat osteosarcoma (ROS) cells, rat calvaria cells, etc.) is observed by measuring the amount of radiolabeled thymidine ([^3 H]thymidine) incorporated by these cells. ([^3 H]thymidine is "incorporated" by cellular DNA being synthesized as a result of cell proliferation.) The greater the level of [^3 H]thymidine measured, the greater the amount of proliferation of the osteoblast cells.
More specifically, a test sample (comprised of a test compound and osteoblast-like cells) and a control sample (comprised of only osteoblast-like cells) are pulsed with [^3 H]thymidine. The amount of [^3 H]thymidine incorporated by the cells is measured using a direct beta counter.
Rat osteoblast-like cells (ROS 17/2.8) are plated at 4×10^3 cells/well in a 96-well plate in Dulbecco's Modified eagle's Medium supplemented with 2% (v/v) Fetal Bovine Serum, and incubated for 6 hrs. Control (serum-free) medium and test medium (test sample and serum-free medium) are then added to the cells and this combination is incubated for 18 hrs. The cells are then pulsed with [^3 H]-thymidine (1 μCi/well) for 2 hrs. The medium is then removed, the cells are harvested onto glass fibre filters and the amount of [^3 H]-thymidine (counts per minute per well) incorporated into DNA is then determined using a direct beta counter. Values for control groups are then compared to values for treated groups.
(§1) The compound H-Tyr-D-Ala-Gly-Phe-D-Leu-OH ("DADLE") is screened to determine whether it stimulates proliferation of osteoblast-like cells. […] The medium is then removed, the cells are harvested onto glass fibre filters, and the amount of ^3 H-thymidine (counts per minute per well) incorporated into DNA is determined using a direct beta counter. […]
as §1, with “Tyr-D-Cys(S-t-butylthioether)-Gly-Phe-Leu-Thr(O-t-butylether) ("BUBUC")” for “H-Tyr-D-Ala-Gly-Phe-D-Leu-OH ("DADLE")”

`O=C(O)CNC(=O)C(CS)Cc1ccccc1` (racemic) [DL-3-mercapto-2-benzyl-propanoylglycine] was tested, and the “[3H]-thymidine incorporation (proliferation) vs control” value was “significantly stimulated proliferation of the osteoblast-like cells”.
